For orientation: pIC50 means the negative decadic logarithm of the IC50, by convention in mol/L.

pIC50: −log10 of the molar value.

Holding throughout (type): biochemical
The target in assay [1] is T1, Recombinant Human MMP-13 (Homo sapiens, UniProt P45452).
T1 construct: purchased R&D systems 511-MM
Briefly: MMP-13 inhibitory activity (MMP-13 specific fluorescent substrate with quencher). The settings on record: Experimental Example 3; read-out: IC50 MMP13. The procedure, abridged:
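IC50 (μM) derived from % inhibition, normalised to wells without enzyme and without inhibitor, fluorescence read at 325/405 nm. Enzyme and compound preceded addition of the quenched 7-MCA…DPA substrate; Tris-HCl buffer, 25 °C for 1 h, acetic-acid stop.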

The target in assay [2] is T2, MMP-1 (Homo sapiens, UniProt P03956).
T2 sequence (P03956 100-469): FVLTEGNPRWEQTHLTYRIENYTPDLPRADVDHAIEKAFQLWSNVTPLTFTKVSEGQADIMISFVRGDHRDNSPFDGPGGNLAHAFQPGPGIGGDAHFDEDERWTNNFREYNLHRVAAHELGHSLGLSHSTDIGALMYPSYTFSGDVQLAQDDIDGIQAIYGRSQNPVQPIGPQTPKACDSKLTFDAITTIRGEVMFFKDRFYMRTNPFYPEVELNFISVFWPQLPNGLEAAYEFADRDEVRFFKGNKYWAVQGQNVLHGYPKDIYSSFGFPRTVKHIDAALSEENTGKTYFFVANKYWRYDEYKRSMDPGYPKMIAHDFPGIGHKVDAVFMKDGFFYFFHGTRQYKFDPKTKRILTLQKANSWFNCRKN
Put plainly: MMP-1 inhibitory action (Type I collagen Activity Measurement kit, FITC-labeled collagen type I). Conditions: Experimental Example 2; read-out: IC50 MMP1.

Assay [3] concerns the target T3, aggrecanase-1 (Homo sapiens, UniProt O75173).
T3 sequence (O75173 213-837): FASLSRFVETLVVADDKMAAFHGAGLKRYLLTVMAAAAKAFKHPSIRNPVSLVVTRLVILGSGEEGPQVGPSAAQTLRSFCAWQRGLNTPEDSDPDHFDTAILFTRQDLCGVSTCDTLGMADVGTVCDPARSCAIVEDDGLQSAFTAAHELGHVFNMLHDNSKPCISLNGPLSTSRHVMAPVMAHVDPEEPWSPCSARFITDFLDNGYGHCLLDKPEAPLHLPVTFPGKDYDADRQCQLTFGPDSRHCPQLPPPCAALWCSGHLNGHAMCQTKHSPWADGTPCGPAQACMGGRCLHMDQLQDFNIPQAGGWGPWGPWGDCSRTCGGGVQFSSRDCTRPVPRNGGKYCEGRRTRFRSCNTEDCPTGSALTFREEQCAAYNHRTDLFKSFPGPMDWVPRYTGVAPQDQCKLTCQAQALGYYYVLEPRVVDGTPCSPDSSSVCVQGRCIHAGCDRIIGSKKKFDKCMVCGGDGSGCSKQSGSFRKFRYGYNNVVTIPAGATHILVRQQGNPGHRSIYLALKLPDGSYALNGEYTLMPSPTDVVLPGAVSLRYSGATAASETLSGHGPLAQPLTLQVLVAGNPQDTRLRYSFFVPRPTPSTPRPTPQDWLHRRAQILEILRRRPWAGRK
Briefly: Aggrecanase-1 inhibitory action (Particle Assay, GAG release from aggrecan-containing polyacrylamide particles). Conditions: Experimental Example 1; read-out: IC50 AG1. The procedure, abridged: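 Readout was dimethylmethylene blue absorbance (595 nm) of glycosaminoglycan liberated into supernatant, calibrated with whale chondroitin sulfate. Substrate was aggrecan in polyacrylamide particles, digested 15 h at 37° C in Tris-HCl; TC50 (μM) derived from inhibition relative to no-enzyme and no-inhibitor controls.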

For `NC(=O)OCCc1cccc(C2CC2(NS(=O)(=O)c2ccc(-c3cc(C(F)(F)F)on3)s2)C(=O)O)c1` (stereo not drawn) [Example 2-270], the figures for the pIC50 in assay [1], in assay [2] and in assay [3] were more than 7.00, not above 6.00 and more than 7.00, respectively.
With `COCCN(C)C(=O)c1ccc(C2(CCCOC(C)=O)CC2(NS(=O)(=O)c2ccc(-c3cc(C(F)(F)F)on3)s2)C(=O)O)cc1` (stereo not drawn) [Example 2-271], the pIC50 in assay [1] is more than 6.00; in assay [2] it was not above 5.00; in assay [3], not above 6.00.
Taken in the same sequence, the figures for `CC(=O)NCCCC1(c2ccccc2)CC1(NS(=O)(=O)c1ccc(-c2ccc(Cl)cc2)s1)C(=O)O` (stereo not drawn) [Example 2-272] were more than 7.00, not above 5.00 and more than 7.00.
The matching figures for `O=C(O)C1(NS(=O)(=O)c2ccc(-c3ccc(Cl)cc3)s2)CC1(CCCn1cccn1)c1ccccc1` (stereo not drawn) [Example 2-273]: more than 7.00, more than 6.00 and more than 7.00.
As for `CC1(C)C(c2ccccc2)C1(NS(=O)(=O)c1ccc(-c2ccc(Cl)cc2)s1)C(=O)O` (stereo not drawn) [Example 2-274], the pIC50 is not above 6.00 in assay [1], not above 5.00 in assay [2] and more than 7.00 in assay [3].
Regarding `CC1(C)C(c2ccccc2)C1(NS(=O)(=O)c1ccc(-c2cc(C(F)(F)F)on2)s1)C(=O)O` (stereo not drawn) [Example 2-275], the negative logarithm of the IC50 (pIC50) in assay [1] was more than 6.00; in assay [2], not above 6.00; in assay [3], more than 7.00.
The matching figures for `O=C1CCCN1c1cccc(C2CC2(NS(=O)(=O)c2ccc(-c3cc(C(F)(F)F)on3)s2)C(=O)O)c1` (stereo not drawn) [Example 2-276]: more than 7.00, not above 6.00 and more than 6.00.
As for `O=C(O)C1(NS(=O)(=O)c2ccc(-c3cc(C(F)(F)F)on3)s2)C2Cc3ccccc3C21` (stereo not drawn) [Example 2-277], the values for the pIC50 in assay [1], in assay [2] and in assay [3] were more than 6.00, not above 6.00 and more than 6.00, respectively.
With `NC(=O)CCc1ccc([C@H]2C[C@@]2(NS(=O)(=O)c2ccc(-c3cc(C(F)(F)F)on3)s2)C(=O)O)cc1` [Example 2-278], the results for the negative-log IC50 (pIC50) in assay [1], in assay [2] and in assay [3] were more than 7.00, more than 6.00 and more than 7.00, respectively.
On to `O=C(CCc1ccc([C@H]2C[C@@]2(NS(=O)(=O)c2ccc(-c3cc(C(F)(F)F)on3)s2)C(=O)O)cc1)N1CCOCC1` [Example 2-279], for which the pIC50 in assay [1] was more than 7.00; in assay [2], more than 6.00; in assay [3], more than 7.00.
As for `CN1CCN(C(=O)CCc2ccc([C@H]3C[C@@]3(NS(=O)(=O)c3ccc(-c4cc(C(F)(F)F)on4)s3)C(=O)O)cc2)CC1` [Example 2-280], the pIC50 in assay [1] was more than 7.00; in assay [2], not above 5.00; in assay [3], more than 6.00.
With `CNC(=O)CCc1ccc([C@H]2C[C@@]2(NS(=O)(=O)c2ccc(-c3cc(C(F)(F)F)on3)s2)C(=O)O)cc1` [Example 2-281], the values for the pIC50 in assay [1], in assay [2] and in assay [3] were more than 7.00, more than 6.00 and more than 7.00, respectively.
For `CN(C)C(=O)CCc1ccc([C@H]2C[C@@]2(NS(=O)(=O)c2ccc(-c3cc(C(F)(F)F)on3)s2)C(=O)O)cc1` [Example 2-282], the pIC50 is more than 7.00 in assay [1], more than 6.00 in assay [2] and more than 7.00 in assay [3].
`O=C(O)C1(NS(=O)(=O)c2ccc(-c3cc(C(F)(F)F)on3)s2)CC1c1cccc(CO)c1` (stereo not drawn) [Example 2-283]: the figures for the pIC50 in assay [1], in assay [2] and in assay [3] were more than 7.00, not above 6.00 and more than 6.00, respectively.
Turning to `CC(C)(C)OC(=O)NCCCC1(c2ccccc2)CC1(NS(=O)(=O)c1ccc(-c2ccc(Cl)cc2)s1)C(=O)O` (stereo not drawn) [Example 2-284], the pIC50 was more than 7.00 in assay [1], not above 6.00 in assay [2] and more than 7.00 in assay [3].
Consider `NCCCC1(c2ccccc2)CC1(NS(=O)(=O)c1ccc(-c2ccc(Cl)cc2)s1)C(=O)O` (stereo not drawn) [Example 2-285], for which the pIC50 was not above 6.00 in assay [1], not above 6.00 in assay [2] and more than 6.00 in assay [3].
As to `CC1[C@H](c2ccccc2)[C@]1(NS(=O)(=O)c1ccc2c(c1)Cc1cc(Br)ccc1-2)C(=O)O` (stereo partly drawn) [Example 2-286], the pIC50 in assay [1] is more than 7.00; in assay [2], not above 6.00; in assay [3], more than 7.00.
In the case of `Cc1cnn(-c2ccc(S(=O)(=O)N[C@@]3(C(=O)O)C(C)[C@@H]3c3ccccc3)s2)c1` (stereo partly drawn) [Example 2-287], the pIC50 is more than 7.00 in assay [1], more than 6.00 in assay [2] and more than 7.00 in assay [3].
Regarding `CC1[C@@H](c2ccccc2)[C@@]1(NS(=O)(=O)c1ccc(-c2cc(C(F)(F)F)on2)s1)C(=O)O` (stereo partly drawn) [Example 2-288], the pIC50 in assay [1] is more than 7.00; in assay [2], more than 6.00; in assay [3], more than 7.00.
As for `NCc1ccc([C@@H]2C[C@]2(NS(=O)(=O)c2ccc(-c3cc(C(F)(F)F)on3)s2)C(=O)O)cc1` [Example 2-289], the pIC50 was more than 6.00 in assay [1], not above 6.00 in assay [2] and more than 6.00 in assay [3].
On to `CN(C)C(=O)Cc1ccc([C@@H]2C[C@]2(NS(=O)(=O)c2ccc(-c3cc(C(F)(F)F)on3)s2)C(=O)O)cc1` [Example 2-290], for which the values for the pIC50 in assay [1], in assay [2] and in assay [3] were more than 7.00, more than 6.00 and more than 7.00, respectively.
Consider `O=C(Cc1ccc([C@@H]2C[C@]2(NS(=O)(=O)c2ccc(-c3cc(C(F)(F)F)on3)s2)C(=O)O)cc1)N1CCOCC1` [Example 2-291], for which the figures for the pIC50 in assay [1], in assay [2] and in assay [3] were more than 7.00, more than 6.00 and more than 7.00, respectively.
Consider `NC(=O)Cc1ccc([C@@H]2C[C@]2(NS(=O)(=O)c2ccc(-c3cc(C(F)(F)F)on3)s2)C(=O)O)cc1` [Example 2-292], for which the figures for the pIC50 in assay [1], in assay [2] and in assay [3] were more than 7.00, more than 6.00 and more than 7.00, respectively.
For `CNC(=O)Cc1ccc([C@@H]2C[C@]2(NS(=O)(=O)c2ccc(-c3cc(C(F)(F)F)on3)s2)C(=O)O)cc1` [Example 2-293], the results for the pIC50 in assay [1], in assay [2] and in assay [3] were more than 7.00, more than 6.00 and more than 7.00, respectively.
Turning to `CN1CCN(C(=O)Cc2ccc([C@@H]3C[C@]3(NS(=O)(=O)c3ccc(-c4cc(C(F)(F)F)on4)s3)C(=O)O)cc2)CC1` [Example 2-294], the results for the pIC50 in assay [1], in assay [2] and in assay [3] were more than 7.00, not above 6.00 and more than 7.00, respectively.
Take `NC(=O)OCCC1(c2ccccc2)CC1(NS(=O)(=O)c1ccc(-c2ccc(Cl)cc2)s1)C(=O)O` (stereo not drawn) [Example 2-295]: the pIC50 in assay [1] was more than 7.00; in assay [2] it was not above 6.00; in assay [3], more than 7.00.
Regarding `CC1[C@H](c2ccccc2)[C@]1(NS(=O)(=O)c1ccc(-c2cc(C(F)(F)F)on2)s1)C(N)=O` (stereo partly drawn) [Example 2-296], the pIC50 is not above 6.00 in assay [1], not above 5.00 in assay [2] and not above 6.00 in assay [3].
As to `CNC(=O)[C@]1(NS(=O)(=O)c2ccc(-c3cc(C(F)(F)F)on3)s2)C(C)[C@@H]1c1ccccc1` (stereo partly drawn) [Example 2-297], the pIC50 in assay [1] was not above 6.00; in assay [2] it was not above 5.00; in assay [3] it was not above 6.00.
Turning to `O=C(NCCCC1(c2ccccc2)CC1(NS(=O)(=O)c1ccc(-c2ccc(Cl)cc2)s1)C(=O)O)OC1CCCC1` (stereo not drawn) [Example 2-298], the pIC50 was more than 7.00 in assay [1], not above 6.00 in assay [2] and more than 7.00 in assay [3].
Regarding `CCC1C(c2ccccc2)C1(NS(=O)(=O)c1ccc(-c2cc(C(F)(F)F)on2)s1)C(=O)O` (stereo not drawn) [Example 2-299], the pIC50 in assay [1], in assay [2] and in assay [3] was more than 7.00 throughout.
